# Source: patent publication US20220242850A1, “PHTHALAZIN-1-ONE DERIVATIVES USEFUL AS GRK2 INHIBITORS” (Janssen Pharmaceutica NV, priority 2019, published 2022)
# Several values for one entry are separate records, joined by “and”; a condition that tells them apart may be missing. Identical values can stand only once.
# Biological target: T1, GRK2 (Homo sapiens, UniProt P25098)
# T1 sequence (P25098 1-689): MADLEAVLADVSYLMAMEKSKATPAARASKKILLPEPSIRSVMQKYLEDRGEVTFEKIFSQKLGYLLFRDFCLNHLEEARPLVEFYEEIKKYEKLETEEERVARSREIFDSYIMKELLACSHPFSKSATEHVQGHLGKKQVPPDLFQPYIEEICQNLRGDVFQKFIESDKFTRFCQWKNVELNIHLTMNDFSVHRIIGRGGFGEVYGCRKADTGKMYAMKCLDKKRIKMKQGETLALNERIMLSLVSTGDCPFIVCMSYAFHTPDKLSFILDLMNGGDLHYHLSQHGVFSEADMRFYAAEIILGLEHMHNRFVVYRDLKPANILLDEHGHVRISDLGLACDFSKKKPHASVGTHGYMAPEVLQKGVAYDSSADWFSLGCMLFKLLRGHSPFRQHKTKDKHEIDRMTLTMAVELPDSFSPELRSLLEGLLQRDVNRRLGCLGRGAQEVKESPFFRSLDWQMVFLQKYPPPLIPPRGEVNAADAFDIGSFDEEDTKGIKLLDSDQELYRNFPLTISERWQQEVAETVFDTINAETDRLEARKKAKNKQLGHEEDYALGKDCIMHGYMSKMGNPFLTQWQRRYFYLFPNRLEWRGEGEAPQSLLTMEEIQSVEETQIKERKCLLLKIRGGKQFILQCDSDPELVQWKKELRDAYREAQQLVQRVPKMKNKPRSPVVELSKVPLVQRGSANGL
# Assay: GRK2 Transcreener Assay
# Type: biochemical
# Settings: 10 nM GRK2, 10 uM ATP, 150 uM peptide substrate
# Method: Positive and negative control wells received an equal volume of DMSO. The final DMSO concentration in the assay is 1%.
# The plate was placed in centrifuge equipped with a spin-bucket rotor and spun for 1 min at 1000 rpm.
# GRK2 enzymatic reactions were initiated with the addition of 2 μL/well of 50 nM GRK2 in assay buffer. Plates were centrifuged for 1 min at 1000 rpm. For negative control wells, the order of reagent addition was reversed: 10 μL/well ADP detection mix (see below) was added first, followed by the addition of 2 μL/well of the GRK2 solution. Reaction mixtures were incubated at ambient temperature for 2 hours.
# Following incubation, the reactions were quenched with 10 μL/well of the Transcreener ADP detection mix. […] The plates were then centrifuged for 1 min at 1000 rpm.
# Fluorescence polarization values of the reaction mixtures were read on a Safire II plate reader after a 60 min incubation at ambient temperature. Excitation wavelength=590 nm: emission wavelength=650 nm.
# The fluorescence polarization data were converted to % activity as follows:
# % activity=(sample−NC)/(PC−NC)*100
# where NC is the mean of negative control (ADP detection mix added prior to GRK2 addition), and PC is the mean of positive control (GRK2 reaction without inhibitor). IC50 values are determined from a 4-parameter fit, using the following equation:
# (§1) Y=Bottom+(Top−Bottom)/(1+10^(Log IC50-X)*Hill slope)),
# (§2) where X=log10 of the compound concentration.
row,IC50,SMILES
1,7700 nM,"COc1cccc([C@@H](C)n2ncc3ccc(-c4ccnc(N)n4)cc3c2=O)c1 (single isomer, unassigned) [Compound 33]"
2,> 50000 nM,"O=c1c2cc(-c3cn[nH]c3)ccc2cnn1Cc1cccc(OC(F)(F)F)c1 [Compound 39, 7-(1H-Pyrazol-4-yl)-2-[[3-(trifluoromethoxy)phenyl]methyl]phthalazin-1-one]"
3,7.4 nM,"COC(=O)CCNC(=O)c1cccc(Cn2ncc3ccc(-c4cn[nH]c4)cc3c2=O)c1 [Compound 24, Methyl 3-[[3-[[1-oxo-7-(1H-pyrazol-4-yl)phthalazin-2-yl]methyl]benzoyl]amino]propanoate]"
4,8 nM,"O=C(O)COc1cccc(Cn2ncc3ccc(-c4cn[nH]c4)cc3c2=O)c1 [Compound 38, 2-[3-[[1-Oxo-7-(1H-pyrazol-4-yl)phthalazin-2-yl]methyl]phenoxy]acetic acid]"
5,47 nM,"C[C@H](c1cccc(OCC(=O)O)c1)n1ncc2ccc(-c3cn[nH]c3)cc2c1=O (single isomer, unassigned) [Compound 29]"
6,1900 nM,"COC(=O)COc1cccc([C@@H](C)n2ncc3ccc(-c4ccnc(N)n4)cc3c2=O)c1 (single isomer, unassigned) [Compound 27]"
7,< 5 nM,"COC(=O)COc1cccc(Cn2ncc3ccc(-c4cn[nH]c4)cc3c2=O)c1 [Compound 37, Methyl 2-[3-[[1-oxo-7-(1H-pyrazol-4-yl)phthalazin-2-yl]methyl]phenoxy]acetate]"
8,300 nM,"O=c1c2cc(-c3cn[nH]c3)ccc2cnn1Cc1ccccc1 [Compound 40, 2-Benzyl-7-(1H-pyrazol-4-yl)phthalazin-1-one]"
9,890 nM,"COc1cccc(Cn2ncc3ccc(-c4ccnc(N)n4)cc3c2=O)c1 [Compound 34, 7-(2-Aminopyrimidin-4-yl)-2-[(3-methoxyphenyl)methyl]phthalazin-1-one]"
10,1300 nM,"O=C(O)Cc1cccc(Cn2ncc3ccc(-c4cn[nH]c4)cc3c2=O)c1 [Compound 23, 2-[3-[[1-oxo-7-(1H-pyrazol-4-yl)phthalazin-2-yl]methyl]phenyl]acetic acid]"
11,660 nM,"C[C@H](c1cccc(OCCOC2CC2)c1)n1ncc2ccc(-c3cn[nH]c3)cc2c1=O (single isomer, unassigned) [Compound 30]"
12,220 nM,"COC(=O)Cc1cccc(Cn2ncc3ccc(-c4cn[nH]c4)cc3c2=O)c1 [Compound 25, Methyl 2-[3-[[1-oxo-7-(1H-pyrazol-4-yl)phthalazin-2-yl]methyl]phenyl]acetate]"
13,6200 nM,"Cc1n[nH]cc1-c1ccc2cnn([C@H](C)c3cccc(OCCOC4CC4)c3)c(=O)c2c1 (single isomer, unassigned) [Compound 31]"
14,410 nM,"Cc1n[nH]cc1-c1ccc2cnn([C@H](C)c3cccc(OCC(=O)O)c3)c(=O)c2c1 (single isomer, unassigned) [Compound 28]"
15,520 nM,"O=C(O)CCNC(=O)c1cccc(Cn2ncc3ccc(-c4cn[nH]c4)cc3c2=O)c1 [Compound 26, 3-[[3-[[1-Oxo-7-(1H-pyrazol-4-yl)phthalazin-2-yl]methyl]benzoyl]amino]propanoic acid]"
16,1600 nM,"CCC(c1cccc(OC)c1)n1ncc2ccc(-c3cn[nH]c3)cc2c1=O (centres unmarked) [Compound 32, 2-[1-(3-Methoxyphenyl)propyl]-7-(1H-pyrazol-4-yl)phthalazin-1-one]"
17,11000 nM,"C[C@H](c1cccc(OCC(=O)O)c1)n1ncc2ccc(-c3ccnc(N)n3)cc2c1=O (single isomer, unassigned) [Compound 22]"
18,23 nM,"[2H]C([2H])(Oc1cccc([C@@H](C)n2ncc3ccc(-c4cn[nH]c4)cc3c2=O)c1)C(=O)OC (single isomer, unassigned) [Compound 21]"
19,190 nM,"[2H]C([2H])(Oc1cccc([C@@H](C)n2ncc3ccc(-c4cn[nH]c4)cc3c2=O)c1)C(=O)O (single isomer, unassigned) [Compound 20]"
20,140 nM and 120 nM,"COc1cccc(Cn2ncc3ccc(-c4c[nH]nc4C)cc3c2=O)c1 [Compound 35, 2-[(3-Methoxyphenyl)methyl]-7-(3-methyl-1H-pyrazol-4-yl)phthalazin-1-one]"
21,900 nM,"COc1cccc(Cn2ncc3ccc(-c4ccoc4)cc3c2=O)c1 [Compound 36, 7-(3-Furyl)-2-[(3-methoxyphenyl)methyl]phthalazin-1-one]"

# Biological target: T1, GRK2
# Assay: hGRK2 LANCE Ultra In Vitro Assay
# Type: biochemical
# Settings: hGRK2 LANCE Ultra Assay IC50, 10 nM GRK2; ATP 30 or 600 μM (not stated which)
# Method: G-protein coupled receptor kinases (GR Kinases) desensitize activated G-protein coupled receptors (GPCRs), by phosphorylation of cytoplasmic loops or carboxyl-terminal tails of GPCRs. GRK2 is one of the 6 different GR kinases and is implicated in heart failure and diabetes.
# This assay is sensitive and requires as low as 10 nM enzyme, in a total volume of 10 μL. In addition, the ATP concentration can be varied over a broad range, without interfering with the assay or changing the assay condition. […] Testing inhibitors routinely at both high and low ATP concentrations also enables identification of potential non-ATP competitive inhibitors.
# Paroxetine was used as the reference compound in this assay.
# Test compounds were dissolved in DMSO at 1 mM and were 3-fold serial diluted. The compound DMSO solutions were then added (100 nL) into a plate well using an acoustic dispenser. To each well was then added 20 nM GRK2 (5 μL) in assay buffer (20 mM HEPES, pH 7.5, 10 mM MgCl2, 0.001% Tween-20®). The plate was sealed and centrifuged at 1000 rpm for 1 min. The plate and wells containing a mixture of GRK2 and test compound were incubated at ambient temperature for 30 min (prior to initializing the enzymatic reaction).
# Enzyme reactions were initiated by the addition of 4.9 μL Substrates/Eu-Ab mix to each well. […] Final concentrations of reagents in the assays were as follows: 20 mM HEPES, pH 7.5; 10 mM MgCl2; 0.001% Tween-2® (w/v), 30 or 600 μM ATP; 200 nM ULight-peptide; 4 nM Eu-Ab; 10 nM GRK2; and 1% DMSO.
# The plates were sealed and centrifuged at 1000 rpm for 1 min. For reactions at low ATP concentration (30 μM), reaction mixtures were incubated at ambient temperature for 120 min. For reactions at high ATP concentration (600 μM), reaction mixtures were incubated at ambient temperature for 60 min.
# The enzyme reactions were quenched by addition of 10 μL of 12 mM EDTA in 1× LANCE detection solution to each well. The plates were then incubated at ambient temperature for 30 min.
# The raw HTRF data were converted to % active as follows:
# % active=(sample−NC)/(PC−NC)*100
# where NC is the mean of negative control (reactions without GRK2), and PC is the mean of positive control (reactions with GRK2 but without inhibitor). IC50 values were determined from a 4-parameter fit, using the following equation:
# as §1, §2
row,IC50 [nM],SMILES
1,11,"COc1cccc(Cn2ncc3ccc(-c4cn[nH]c4)c(C#N)c3c2=O)c1 [Compound 10, 3-[(3-Methoxyphenyl)methyl]-4-oxo-6-(1H-pyrazol-4-yl)phthalazine-5-carbonitrile]"
2,< 5,"COc1cccc(Cl)c1CNC(=O)c1cccc(Cn2ncc3ccc(-c4cn[nH]c4)cc3c2=O)c1 [Compound 1, N-[(2-Chloro-6-methoxy-phenyl)methyl]-3-[[1-oxo-7-(1H-pyrazol-4-yl)phthalazin-2-yl]methyl]benzamide]"
3,< 5,"Cc1cccc(Cl)c1CNC(=O)c1cccc(Cn2ncc3ccc(-c4cn[nH]c4)cc3c2=O)c1 [Compound 2, N-[(2-Chloro-6-methyl-phenyl)methyl]-3-[[1-oxo-7-(1H-pyrazol4-yl)phthaiazin-2-yl]methyl]benzamide]"
4,5.5,"C#CCCNC(=O)c1cccc(Cn2ncc3ccc(-c4cn[nH]c4)cc3c2=O)c1 [Compound 4, N-But-3-ynyl-3-[[1-oxo-7-(1H-pyrazol-4-yl)phthalazin-2-yl]methyl]benzamide]"
5,1700,"COc1cccc(C(C)n2ncc3ccc(-c4cn[nH]c4)cc3c2=O)c1 (single isomer, unassigned) [Compound 17, 2-[1-(3-Methoxyphenyl)ethyl]-7-(1H-pyrazol-4-yl)phthalazin-1-one]"
6,10,"C#CCNC(=O)c1cccc(Cn2ncc3ccc(-c4cn[nH]c4)cc3c2=O)c1 [Compound 8, 3-[[1-Oxo-7-(1H-pyrazol-4-yl)phthalazin-2-yl]methyl]-N-prop-2-ynyl-benzamide]"
7,25,"C#CCOc1cccc(Cn2ncc3ccc(-c4cn[nH]c4)c(F)c3c2=O)c1 [Compound 14, 8-Fluoro-2-[(3-prop-2-ynoxyphenyl)methyl]-7-(1H-pyrazol-4-yl)phthalazin-1-one]"
8,18,"O=C(NC1CC1)c1cc(Cn2ncc3ccc(-c4cn[nH]c4)cc3c2=O)ccc1F [Compound 13, N-Cyclopropyl-2-fluoro-5-[[1-oxo-7-(1H-pyrazol-4-yl)phthalazin-2-yl]methyl]benzamide]"
